Laboratory results reported in article PMC12491715 (Acta Pharmaceutica Sinica. B, 2025).

How the values were obtained:
Aqueous stability (UPLC) = type: physicochemical
Procedure: For the aqueous stability determination, UPLC analyses were performed as described under Chemistry–General Information. The method used a Waters Acquity UPLC® HSS C18 SB column (2.1 mm× 50 mm, 1.8 μm) thermostated at 40 °C, with: injection volume, 5 μL; flow rate, 0.4 mL/min; detector λ, 220 nm; mobile phase A: 0.1% TFA (v/v) in MilliQ water; mobile phase B: MeCN. Gradient: 0–5 min, 20%–100% B; 5–6 min, 20% B.
Compound stock solutions (100 mmol/L) were prepared in absolute EtOH, while the internal standard (caffeine) was dissolved in PBS (0.1 mg/mL). The aqueous stability solutions were prepared by mixing 1200 μL PBS with internal standard, 150 μL absolute EtOH, and 150 μL compound stock solution in a HPLC vial to give 10 mmol/L compound concentration in PBS/EtOH = 80:20, which was injected immediately and then at hourly intervals for 48 h. The analyte AUCs were normalized on internal standard AUCs and compared with the timepoint zero. For the rate calculation, pseudo-first order kinetics were assumed.
For investigation of compound 8 stability in an aqueous medium, its stock solution (10,000 mg/L) was prepared in EtOH. 15 μL of the stock solution was mixed with 60 μL of caffeine (2500 mg/L in EtOH) and 1425 μL of the respective aqueous solution/buffer to achieve final concentration of 100 mg/L with 5% ethanol content. The UPLC analysis was carried as described above.

BALB/c mice = assay: Acute in vivo toxicity
From the text: All mice used were 9–15 weeks old wild-type BALB/c mice bred in the Laboratory of Animal Genomics at the Faculty of Veterinary Medicine, University of Ljubljana. For intravenous administration, 4 males and one female were additionally purchased from Envigo RMS Holding Corp. Mice were conventionally bred in open polycarbonate cages (Tecniplast, Buguggiate, Italy) and provided with wood chip bedding (Lignocel®, Rettenmaier and Sons, Germany). Mice were kept under standard conditions, i.e., a 12:12 dark–light cycle (LED, CCT 3000 K, ≤ 25 lux above the cage), at temperature 21–24 °C, and 50%–60% humidity. They were fed irradiated rodent diet with minimal levels of phytoestrogens (Teklad global 16% protein rodent diet®, BN 2916, Envigo, Udine, Italy) and had access to drinkable tap water ad libitum. The in vivo study was evaluated by the National Ethics Committee for Animal Experiments and approved by the Veterinary Administration of the Republic of Slovenia; license number document no. U34401-10/2021/8, U34401-10/2021/13, and U34401-10/2021/1.
According to the OECD guidelines for acute toxicity testing, compound 8 was initially tested at 10 mg/kg dosage (10-fold the intended therapeutic dose (1 mg/kg)) in 3 female mice and repeated on 3 additional animals. […] After this fasting period, the animals were weighed and compound 8 was administered by oral gavage at 200 μL/20 g body weight using flexible plastic feeding tubes (20G × 30 mm, Instech Laboratories, USA). After administration, the animals were not fed for an additional hour. The mice were then observed regularly for the first 24 h, with particular attention paid to the first 4 h, and then daily for a total of 14 days, with attention paid to the changes in respiratory rate, heart rate, skin and fur, eyes and mucous membranes, behavioural patterns, and especially to the acute CNS toxicity symptoms (tremors, twitching, salivation, diarrhoea, lethargy, sleep, coma). At the end of the 14-day observation period, all experimental animals were euthanized with CO2 and cervical dislocation.

[1] = test system: ICR mice icv-injected with Aβ1–42; assay: Novel object recognition, mice model with icv-injection of Aβ1–42; type: in vivo; details: ip, once a day, vs rivastigmine 4
Procedure: Mice model with icv-injection of Aβ1–42 The experiments were performed using ICR male mice (8–10 weeks old, weight 18–20 g), which were purchased from Shanghai Bikai Animal Breeding Factory (Shanghai, China). Animals were housed in cages (6 mice per cage) at a constant temperature of 25±2 °C, humidity of 55%±10% and a light/dark (12:12) cycle. The mice had unlimited access to food and water prior to the experiment. Specified conditions for the maintenance of mice were ensured throughout the experiments, including tree bedding (Yizheng Anlimao Biotechnology Co., Ltd., China) and lab feed (Zimao, China). For behavioural tests, mice were selected randomly, each group consisted of 6 mice. The experiments were performed between 9 am and 3 pm.
According to the literature procedure, recombinant human hexafluoroisopropanol-pretreated Aβ1–42 from Merck Millipore (Darmstadt, Germany) was dissolved in 1% DMSO, diluted with saline to the final concentration of 2 mg/mL, and incubated for 72 h to form oligomers. […]
Novel object recognition experiment was performed in a maze with dimensions 50 cm×50 cm×40 cm, with black cuboid (4 cm×4 cm×5 cm) as the old object, and white cylinder (2r = 5 cm, h = 5 cm) as the new object. […] Time spent exploring new and old objects was recorded using ANY-maze software and processed using GraphPad Prism 5.

In the case of `CCN(CC)C(=O)n1cnc(C2(CC)Cc3ccccc3C2)c1` [Compound 8, N,N-Diethyl-4-(2-ethylindan-2-yl)-1H-imidazole-1-carboxamide], the “t1/2 in aqueous solution” value (Aqueous stability (UPLC); PBS:EtOH = 80:20, 10 mmol/L, during 48 h) is reported as “stable”, the “% left after 24 h” value (Aqueous stability (UPLC); PBS:EtOH = 95:5, 100 mg/L) is reported as 100.0% and the “% left after 24 h” value (Aqueous stability (UPLC); pH 2:EtOH = 95:5, 100 mg/L) is reported as 99.9%. For the same compound, the “% left after 24 h” value (Aqueous stability (UPLC); pH 4:EtOH = 95:5, 100 mg/L) was 100.0%, the “% left after 24 h” value (Aqueous stability (UPLC); pH 6:EtOH = 95:5, 100 mg/L) was 100.0% and the “% left after 24 h” value (Aqueous stability (UPLC); pH 10:EtOH = 95:5, 100 mg/L) was 97.7%. The “effects in preliminary safety testing” value (BALB/c mice; 1 mg/kg p.o., mice) was “no effects were observed”, the survival (BALB/c mice; 10 mg/kg p.o., 14-day observation) was “All animals survived” and the “acute cholinergic side effects (salivation, tremors)” value (BALB/c mice; 10 mg/kg p.o., mice) was “No acute cholinergic side effects”. For the same compound, the “effects in preliminary safety testing” value (BALB/c mice; 10 mg/kg p.o., mice) was “some adrenergic symptoms”, the “onset of symptoms after administration” value (BALB/c mice; 10 mg/kg p.o., mice) was 15 to 30 min and the “time after which all effects subsided” value (BALB/c mice; 10 mg/kg p.o., mice) was 4 to 5 h. For the same compound, the “recognition memory in novel object recognition task” value [1] was “restored recognition memory comparable or better than 4”.
